Data from patent US20240197704A1, “TREATMENT METHODS AND CO[…]” (Johns Hopkins University, priority 2021, published 2024).
“Also recorded” adds a separate entry of the source.

Legend:
[1] = tested on: patient with pathogenic SYNGAP1 variant; assay: VB-MAPP assessment for verbal and social skills (case study); assay type: in vivo, human; parameters: key to VB-MAPP Communication: Manding / VB-MAPP Communication: Pointing/gesturing to preferred items / VB-MAPP Communication: Listener Responding-reinforcing/preferred items / VB-MAPP Communication: PECS-Phase 1 / VB-MAPP Cognitive: Motor imitation / VB-MAPP Cognitive: Receptive commands / VB-MAPP Social: Responds to name / VB-MAPP Social: Parallel play / VB-MAPP Social: Independent play / VB-MAPP Health: Feeding / VB-MAPP Behavior: Functional Communication training / VB-MAPP Behavior: Waiting: ↑ = improvement in skill from prior assessment; ↓ = worsening in skill from prior assessment
Protocol: (§1) A […] […] daughter with pathogenic SYNGAP1 variant was trialed on low doses of PMP.
(§2) Clinical data from physician's clinic notes; genetic testing reports; developmental scores from occupational therapy, physical therapy, speech and language therapy evaluations; and applied behavioral analysis (ABA) reports were reviewed.
(§3) Low-dose PMP at 0.2 mg every night was started when they were 25 months of age. […] The Verbal Behavior Milestones Assessment and Placement Program (VB-MAPP) which is an assessment and skills-tracking system to assess the language, learning and social skills of children with autism or other developmental disabilities was used to evaluate their language and other related social skills. […] Patients' baseline VB-MAPP score […] (prior to starting PMP) was 7/45, which improved to 10/45 at 3 months post PMP and then to 17.5/45 at 10 and 13 months post PMP with 37.2% of developmental goals mastered. A follow-up overnight EEG was done […]. […] Multifocal epileptiform discharges, which were rarely observed in their prior EEGs, were noted over the temporal and central head regions bilaterally and occurred independently. At times the centro-temporal discharges occurred synchronously. These discharges were most prevalent in the N2 sleep, which increased in prevalence in subsequent N2 sleep cycles (FIG. 3). Finally, similar to dysregulated gamma seen during behavioral transition points from wake to NREM sleep in Syngap1^+/− mice, we also observed gamma dysregulation in our patient's pre-PMP EEG, where gamma power was increased during NREM when transitioning from REM and, therefore, presenting a positive slope (FIG. 4).

[2] = tested on: patient with pathogenic SYNGAP1 variant; assay: EEG, hypnogram and quantitative EEG analysis pre- and post-PMP (case study); assay type: in vivo, human
Protocol: EEGs used for analysis were recorded with a 10-20 electrode placement system. EEGs were reviewed in Persyst (version 14, Persyst Development Corporation, Prescott, AZ). Long-duration continuous EEGs (≥16 h) that included awake and sleep states were reviewed in non-overlapping 10-second epochs. Each epoch was analyzed for the presence or absence of abnormalities and were given a binary score (1=present, 0=absent). The findings that were scored were abnormal slowing (generalized or focal, FIGS. 3A, B) and epileptiform discharges (generalized or focal, FIGS. 3C,D).
In order to characterize and quantify the clustered nature of spikes, hierarchical clustering analysis was implemented. Hierarchical clustering analysis groups data points based on Euclidean distance and the size of clusters were determined by the clustering coefficient. Average number of spike events in a cluster was computed for a sequence of increasing clustering coefficients, and the progressions for spike subtypes were compared. The rate at which the average spike events increased with respect to clustering coefficient and the size characterized the clustered nature of spike events.
Sleep stages were manually scored in 10 second epochs. FFT was applied to 10 second epochs in Sirenia Sleep software (Pinnacle Tech. Inc, Kansas USA) for further EEG analysis. […] To analyze the presence of similar gamma dysregulation in REM and NREM transition points, linear regression analysis was done on 10 min segment of the REM to NREM transition point

[3] = tested on: juvenile HET+/- (Syngap1+/-) mice; assay: Movement analysis of fast-active events with infrared cameras; assay type: in vivo; conditions: 5-7 am, dark cycle; HET+/- with low-dose PMP vs WT+/+
Protocol: (§4) 24 h tethered vEEG recording was performed for Het+/− mice and their age- and sex matched WT littermates at P21-P30, followed by telemetric vEEG for 24 h with 6 h SD at P35. Quantitative EEG (qEEG) analysis included the frequency bands: delta (0.5-4.0 Hz), theta(5.5-8.0 Hz), alpha (8.0-13.0 Hz), beta (13.0-30 Hz), and gamma (35-50 Hz). Linear regression of gamma frequency power during transition states from wake to sleep was quantified. Spike frequency over 24 h EEG was scored by a blind reviewer based on previously published parameters. The effect of low-dose PMP (2 mg/kg, IP, BD), an AMPA receptor antagonist, on these potential qEEG biomarkers was investigated. Additionally, movement analysis was performed using infrared cameras to trace fast-active movements between 5 am-7 am. 24 h telemetric vEEG was recorded during marble burying and novel object behavioral tests.

[4] = tested on: juvenile HET+/- (Syngap1+/-) mice; assay: Spike frequency over 24 h EEG; assay type: in vivo; conditions: low-dose PMP
Protocol: as §4

PV+ interneurons = assay: AMPA insertion and hyperexcitable phenotype in SynGAP1 mice; assay type: in vivo; conditions: low dose
[5] = tested on: patient with pathogenic SYNGAP1 variant; assay: Case study of low-dose PMP: tolerability, therapy evaluations, sleep, clinical seizures; assay type: in vivo, human
Protocol: as §1
The child has now been on low-dose PMP (<2 mg daily) for over one year. We here discuss the safety profile, changes in the electroencephalographic (EEG) features and clinical features, especially in the developmental profile and sleep pre-and-post PMP. We hypothesize that PMP at doses lower than typically used as an antiseizure medication will be safe in patients with SYNGAP1-DEE and help normalize sleep and behavioral disorders. Almost 50% of SYNGAP1-DEE related epilepsies are refractory to treatment from the very onset and currently very few children are prescribed PMP even for seizure control such that only 1 of 57 patients in a cohort study was documented to have been on it(3).
as §2, §3

Syngap1+/- mice = conditions: cited from earlier work
[6] = tested on: juvenile HET+/- (Syngap1+/-) mice; assay: 24 h vEEG quantitative EEG (gamma slope, delta power), with or without 6 h sleep deprivation; assay type: in vivo; conditions: for delta power during NREM: one-way ANOVA
Protocol: as §4

[7] = 3 months post PMP (dose 0.2 mg)
[8] = 10 months post PMP (dose 0.3 mg)
[9] = 6 months post-initiation, once daily low-dose PMP at bedtime

SMILES: N#Cc1ccccc1-c1cc(-c2ccccn2)cn(-c2ccccc2)c1=O [PMP, 3-(2-cyanophenyl)-5-(2-pyridyl)-1-phenyl-1,2-dihydropyridin-2-one]
- VB-MAPP Behavior: Functional Communication training [1, 7]: ↑
- VB-MAPP Behavior: Waiting [1, 7]: ↑
- VB-MAPP Cognitive: Motor imitation [1, 7]: ↑
- VB-MAPP Cognitive: Receptive commands [1, 7]: ↑
- VB-MAPP Communication: Listener Responding-reinforcing/preferred items [1, 7]: ↑
- VB-MAPP Communication: Manding [1, 7]: ↑
- VB-MAPP Communication: PECS-Phase 1 [1, 7]: ↑
- VB-MAPP Communication: Pointing/gesturing to preferred items [1, 7]: ↑
- VB-MAPP Health: Feeding [1, 7]: ↑
- VB-MAPP Social: Independent play [1, 7]: ↑
- VB-MAPP Social: Parallel play [1, 7]: ↑
- VB-MAPP Social: Responds to name [1, 7]: ↑
- VB-MAPP score ([1]; 3 months post PMP, baseline prior to PMP 7/45): 10/45
- developmental goals mastered ([1]; 10 and 13 months post PMP): 37.2%
- VB-MAPP Behavior: Functional Communication training [1, 8]: ↑
- VB-MAPP Behavior: Waiting [1, 8]: ↑
- VB-MAPP Cognitive: Motor imitation [1, 8]: ↑
- VB-MAPP Cognitive: Receptive commands [1, 8]: ↑
- VB-MAPP Communication: Listener Responding-reinforcing/preferred items [1, 8]: ↓
- VB-MAPP Communication: Manding [1, 8]: ↓
- VB-MAPP Communication: PECS-Phase 1 [1, 8]: ↑
- VB-MAPP Communication: Pointing/gesturing to preferred items [1, 8]: ↑
- VB-MAPP Health: Feeding [1, 8]: ↑
- VB-MAPP Social: Independent play [1, 8]: ↑
- VB-MAPP Social: Parallel play [1, 8]: ↑
- VB-MAPP Social: Responds to name [1, 8]: ↑
- prevalence of occipital intermittent rhythmic delta activity (OIRDA) ([2]; follow-up overnight EEG, post-PMP vs pre-PMP, wake and REM sleep): overall decrease in the prevalence of the OIRDA; also recorded: significantly reduced post-PMP
- effect on epileptiform discharges ([2]; low-dose PMP): did not have any significant effect on the epileptiform discharges
- prevalence of focal epileptiform discharges ([2]; post PMP vs pre PMP EEG): more prevalent post PMP compared to pre PMP
- gamma dysregulation: gamma slope at REM to NREM transitions ([2]; post-PMP EEG vs pre-PMP EEG, same patient): significantly alleviated; also recorded: significantly rescued
- level of fast active events (hyperactivity) [3]: this relation was lost after the low-dose PMP administration
- cortical spike frequency [4]: reduced spike frequency in high spiking HET^+/− mice however group data was not statistically significant
- excessive AMPA insertion and hyperexcitable phenotype (PV+ interneurons): rescue the excessive AMPA insertion and hyperexcitable phenotype
- tolerability ([5]; 1.5 mg daily at bed-time): tolerating it well
- fine and visual motor skills (occupational therapy evaluation) [5, 9]: improvement in their fine and visual motor skills
- independent walking [5, 9]: started walking independently
- tone and strength (physical therapy evaluation) [5, 9]: significant improvements in their tone and strength
- control of clinical seizures ([5]; low dose PMP): not helpful in controlling their clinical seizures
- motor, cognition, communication, social and behavior domains ([5]; low doses 0.2 mg->0.3 mg per day at bedtime): significant improvements
- tolerability / side effects ([5]; low-dose PMP 0.2 mg, then 0.3 mg every night, started): tolerated the PMP well without any side effects; also recorded: without significant side-effects
- sleep quality (parent report) ([5]; once daily low-dose PMP at bedtime): improvement in sleep quality with fewer night time awakenings
- gamma dysregulation (Syngap1+/- mice; PMP-treated Syngap1+/- mice): significant rescue of the gamma dysregulation
- interictal spikes suppression (Syngap1+/- mice; epileptic mice, low dose): weaker effect on interictal spikes suppression
- delta power during NREM ([6]; 24 h baseline vEEG, all groups incl. HET+/- PMP): did not show notable statistical significance across all groups
- delta power during NREM ([6]; 24 h vEEG with 6 h SD, all groups): did not show notable statistical significance across all groups
- gamma slope at behavioral transition points, wake to sleep ([6]; low-dose PMP 2 mg/kg, IP, BD, juvenile HET+/-, paired t-test p<0.05): significantly reduced the gamma slope and rescued the gamma homeostasis
- gamma slope at sleep transition points after 6 h SD ([6]; low-dose PMP 2 mg/kg, IP, sleep deprived HET+/-, paired t-test p<0.05): rescued gamma homeostasis by decreasing the most dominant slope
